Measurements published in patent US4308256A, “Method of inducing analgesia” (American Home Products Corporation, priority 1980, dated 1981).
Bridge positions count the residues as written; N and C are the ends. Square brackets hold non-standard residues; d marks the D form. Peptide text beside a SMILES is read from it. * marks the point of attachment. Ileψ(thiazoline)Cys = CC[C@H](C)[C@H](N)C1=N[C@H](C(=O)*)CS1; dOrn = NCCC[C@@H](N)C(=O)O

Tests used:
[1] = tested on: rats; settings: fully reversible by naloxone; cited from earlier work
[2] = tested on: male Charles River rats; experiment: D'Amour-Smith rat tail-flick procedure (radiant heat, 8 second cut-off), intraventricular injection; format: in vivo; settings: for Tail-flick latency: leucine-enkephalin intraventricular
Protocol: Intraventricular cannulae, made of 27-gauge stainless steel tubing, are implanted in 300-400 g. male Charles River rats under pentobarbital anesthesia. After a recovery period of at least one week, the rats are restrained in a wire-mesh cylindrical chamber so that the tip of the tail can be positioned at the focal point of a radiant heat source. After an acclimatistation period of 5 minutes, the lamp is turned on and an electric clock activated. Movement of the tip of the tail exposes a photocell to the lamp, which turns off the thermal stimulus and stops the clock. If a rat fails to move its tail within 8 seconds, the heat is automatically turned off to prevent blistering. The intensity of the lamp is adjusted in each case to produce at least three baseline tail-flick latencies of 2.5-4.5 seconds. Tests are initially made every 2 minutes, then every 5 minutes and finally every 15 minutes.
Initially, using the above outlined procedure, the effects of intraventricularly administered leucine-enkephalin are tested in rats according to the above procedure.
The rat tail flick procedure is repeated, first by the simultaneous intraventricular injection of both leucine-enkephalin and bestatin and then by the initial injection of bestatin followed one hour later by the injection of leucine-enkephalin.
The above procedure is repeated again, however, the bestatin is administered first and then one hour later the leucine-enkephalin is administered.
The effects of bestatin alone are tested in rats according to the rat tail flick procedure.

[3] = tested on: aminopeptidase; settings: cited from earlier work
[4] = exogenously (intraventricularly) administered leucine-enkephalin alone, rats

CC(C)C[C@H](NC(=O)[C@H](Cc1ccccc1)NC(=O)CNC(=O)CNC(=O)[C@@H](N)Cc1ccc(O)cc1)C(=O)O [leucine-enkephalin, H-Tyr-Gly-Gly-Phe-Leu-OH, reference compound]
Analgesia after injection into the brain ventricle [1]: profound analgesia | Time after which the effect dissipates rapidly [2, 4]: 10 to 12 min | Time to peak analgesic effect [2, 4]: 6 to 8 min | Tail-flick latency ([2]; Rat 1, 2 min): 8.00 s | Tail-flick latency ([2]; Rat 1, 4 min): 8.00 s | Tail-flick latency ([2]; Rat 1, 6 min): 8.00 s | Tail-flick latency ([2]; Rat 1, 8 min): 8.00 s | Tail-flick latency ([2]; Rat 1, 10 min): 6.15 s | Tail-flick latency ([2]; Rat 1, 12 min): 5.76 s | Tail-flick latency ([2]; Rat 1, 14 min): 2.69 s | Tail-flick latency ([2]; Rat 2, 2 min): 8.00 s | Tail-flick latency ([2]; Rat 2, 4 min): 8.00 s | Tail-flick latency ([2]; Rat 2, 6 min): 5.11 s | Tail-flick latency ([2]; Rat 2, 8 min): 4.24 s | Tail-flick latency ([2]; Rat 2, 10 min): 3.48 s | Tail-flick latency ([2]; Rat 2, 12 min): 4.15 s | Tail-flick latency ([2]; Rat 3, 2 min): 4.88 s | Tail-flick latency ([2]; Rat 3, 4 min): 8.00 s | Tail-flick latency ([2]; Rat 3, 6 min): 7.50 s | Tail-flick latency ([2]; Rat 3, 8 min): 8.00 s | Tail-flick latency ([2]; Rat 3, 10 min): 4.50 s | Tail-flick latency ([2]; Rat 3, 12 min): 3.49 s | Tail-flick latency ([2]; Rat 3, 14 min): 3.04 s | Tail-flick latency ([2]; Rat 4, 2 min): 6.47 s | Tail-flick latency ([2]; Rat 4, 4 min): 6.97 s | Tail-flick latency ([2]; Rat 4, 6 min): 6.62 s | Tail-flick latency ([2]; Rat 4, 8 min): 7.17 s | Tail-flick latency ([2]; Rat 4, 10 min): 6.81 s | Tail-flick latency ([2]; Rat 4, 12 min): 7.52 s | Tail-flick latency ([2]; Rat 4, 14 min): 3.06 s

H-Tyr-Gly-Gly-Phe-Met-OH [methionine-enkephalin]
Analgesia after injection into the brain ventricle [1]: profound analgesia

CC[C@H](C)[C@H](N)C1=N[C@H](C(=O)N[C@@H](CC(C)C)C(=O)N[C@H](CCC(=O)O)C(=O)N[C@H](C(=O)N[C@H]2CCCCNC(=O)[C@H](CC(N)=O)NC(=O)[C@@H](CC(=O)O)NC(=O)[C@H](Cc3cnc[nH]3)NC(=O)[C@@H](Cc3ccccc3)NC(=O)[C@H]([C@@H](C)CC)NC(=O)[C@@H](CCCN)NC2=O)[C@@H](C)CC)CS1 [bacitracin] ({Ileψ(thiazoline)Cys}-L[dE]IK[dOrn]I[dF]H[dD]N; lactam 4-C)
Inhibition of "aminopeptidase"-catalyzed breakdown of enkephalins [3]: effective inhibitors

COc1ccc(C[C@H](N)C(=O)N[C@H]2[C@@H](O)[C@H](n3cnc4c(N(C)C)ncnc43)O[C@@H]2CO)cc1 [puromycin]
Inhibition of "aminopeptidase"-catalyzed breakdown of enkephalins [3]: effective inhibitors
